Reference: patent publication US6197536A, “Methodology to produce, and purify and assay polypeptides with the proteolytic activity of the HCV NS3 protease” (priority 1995, dated 2001)
Non-standard residues stand in square brackets, D forms with d. Residues, ends and D or L forms follow the SMILES beside them. No end group written: not given here. *: point of attachment. Dabcyl = CN(C)c1ccc(N=Nc2ccc(C(=O)*)cc2)cc1; EDANS = O=S(=O)(O)c1cccc2c(NCCN*)cccc12; AllylGly = C=CC[C@H](N)C(=O)O; Abu = CC[C@H](N)C(=O)O; Lac = C[C@H](O)C(=O)O

Tests used:
[1] = biological target: T1, HCV NS3 protease (Hepatitis C virus genotype 1b, UniProt P26663); experiment: Competitive inhibition of NS3 protease by decapeptides P6-P4' modified at position P1; format: biochemical
T1 construct: The protein fragments contain variants of the protease domain of the HCV NS3 protein; added initiator Met (ATG start codon) (N); made in house
T1 sequence (P26663 1027-1208): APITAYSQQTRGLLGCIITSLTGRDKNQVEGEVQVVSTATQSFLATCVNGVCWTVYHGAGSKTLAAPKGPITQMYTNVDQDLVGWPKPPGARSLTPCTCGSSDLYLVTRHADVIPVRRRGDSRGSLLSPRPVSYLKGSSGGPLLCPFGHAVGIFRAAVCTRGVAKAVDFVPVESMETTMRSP
Procedure: (§1) Cleavage was detected by separating the substrate from the hydrolysis products by reverse-phase HPLC. For this purpose the mixture containing the buffer and the peptide incubated with the protease was injected into a reverse-phase Lichrospher RP-18 column (Merck) and eluted with an acetonitrile gradient containing 0.10% trifluoracetic acid. The cleavage products were identified by co-injection of appropriate standards, and by mass spectrometry. For these experiments, proteins produced by one of the methods described in examples 1 and 2 were used.
(§2) Dependence of the activity on temperature was analysed by means of an Arrhenius plot in which the logarithm of the kinetic constant Kcat is given as an inverse function of temperature.

[2] = biological target: T2, NS3 protease (Hepatitis C virus genotype 1b, UniProt P26663); format: biochemical, hepatitis C virus (HCV)
T2 construct: The protein fragments contain variants of the protease domain of the HCV NS3 protein; added initiator Met (ATG start codon) (N); made in house
T2 sequence (P26663 1027-1208): as above
Excerpt: Using the HPLC-based assay, the following kinetic parameters were obtained for the radioactive depsipeptide substrate S1 (SEQ ID NO:44):
Synthesis of the radioactive depsipeptide substrates allows set-up of a high-throughput assay for determination of NS3 protease activity as schematically illustrated in FIG. 11. The principle is the following: both the intact substrate and the N-terminal fragment that originates from enzyme cleavage (Ac-Asp-Glu-Met-Glu-Glu-Abu-OH) (SEQ ID NO:49) are extremely acid, whereas the C-terminal fragment [HO-CH(CH3)CO-Ser-His-Leu-Pro-Tyr-Lys(N^ε -[^3 H]-CH3 CO)-NH2 ] (SEQ ID NO:50) is, according to pH, neutral or basic. It is therefore possible to capture the two acidic species on an anionic exchange resin, leaving the C-terminal fragment in solution. If the C-terminal fragment contains a radioactive marker (in this case the tritiated acetate covalently bonded to the ε-amino group of the C-terminal lysine), the resin will be able to discriminate processed substrate from non-processed substrate, thus making it possible to quantify proteolytic activity by measuring the amount of radioactivity remaining in solution after incubation with the enzyme and treatment with the ion exchanger. […]
Purification to >98% homogeneity was achieved through preparative HPLC on a Nucleosyl C-18 column (250×21 mm, 7 μm) using as eluents (A) 50 mM ammonium acetate, pH 6 and (B) acetonitrile. […] The kinetic parameters for this substrate, evaluated through the HPLC-based assay (see FIG. 14A), were the following:
The buffer used for the assay is the following: 33 mM DTT, 50 mM Tris, pH 7, 50% glycerol, 2% CHAPS. […] The assay can be run in a cuvette or in a (96-well) microtitre plate, monitoring the fluorescence as a function of time (Excitation wavelength […], Emission wavelength […]). The increase in fluorescence upon substrate cleavage is 13-fold. […]

[3] = biological target: T3, HCV protease (Hepatitis C virus genotype 1b, UniProt P26663); experiment: Effect of chymostatin on HCV protease activity; format: biochemical; conditions: 100 μg/ml used in homogenisation
T3 construct: added initiator Met (ATG start codon) (N); made in house; host or cells: E. coli BL21(DE3)
T3 sequence (P26663 1027-1206): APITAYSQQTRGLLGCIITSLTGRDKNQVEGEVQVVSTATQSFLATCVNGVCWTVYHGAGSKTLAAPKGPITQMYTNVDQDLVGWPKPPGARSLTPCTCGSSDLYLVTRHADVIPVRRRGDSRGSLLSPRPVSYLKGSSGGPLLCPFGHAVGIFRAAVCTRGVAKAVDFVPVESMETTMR
Procedure: 1. Homogenisation in the presence of 100 μg/ml of the chymostatin protease inhibitor. […] In this way it was possible to purify a single molecular species with more than 95% of form 2.

[4] = test system: CC(=O)N[C@@H](CC(=O)O)C(=O)N[C@@H](CS)C(=O)N[C@@H](CO)C(=O)N[C@H](C(=O)N1CCC[C@H]1C(=O)N[C@@H](CS)C(=O)N[C@@H](CO)C(=O)NCC(=O)N[C@@H](CO)C(=O)N[C@@H](Cc1c[nH]c2ccccc12)C(=O)O)[C@@H](C)O; experiment: HPLC assay of peptide substrate cleavage by purified NS3 protease in the presence of Pep4A; format: biochemical, hepatitis C virus (HCV); conditions: other: Table 2, stoichiometric concentration, pH 7.5, 25.0 °C
Excerpt: (§3) As mentioned above, the protein NS4A is a cofactor of HCV protease. N and C-terminal deletion experiments have defined the peptide Pep4A with the sequence indicated in SEQ ID NO:6, as the minimum domain still capable of inducing optimal activation. In transfection or in vitro translation experiments the addition of polypeptides containing the minimum NS4A sequence is essential to give effective cleavage. […] The kinetic characteristics of this activation are described below. Using a titration experiment a stoichiometry of 1:1 was determined for this interaction at a concentration of […] of protease, indicating a Kd<300 nM.
(§4) These kinetics were obtained both in the absence and in the presence of stechiometric concentrations of Pep4A. […] When the Km values for the single substrates are compared it becomes evident that the presence of two negative charges in P5 and in P6 determined the bonding effectiveness of a peptide substrate.

[5] = test system: CSCC[C@H](NC(=O)[C@H](CO)NC(=O)[C@H](CS)NC(=O)[C@H](CS)NC(=O)[C@@H](NC(=O)[C@@H](NC(=O)[C@H](CC(=O)O)NC(=O)[C@H](CCC(=O)O)NC(C)=O)C(C)C)C(C)C)C(=O)N[C@@H](CO)C(=O)N[C@@H](Cc1ccc(O)cc1)C(=O)O; experiment: as above; format: biochemical, hepatitis C virus (HCV); conditions: other: Table 2, stoichiometric concentration, pH 7.5, 25.0 °C
Excerpt: as §3, §4

[6] = test system: CSCC[C@H](NC(=O)[C@H](CCC(=O)O)NC(=O)[C@H](CC(=O)O)NC(C)=O)C(=O)N[C@@H](CCC(=O)O)C(=O)N[C@@H](CCC(=O)O)C(=O)N[C@@H](CS)C(=O)N[C@@H](C)C(=O)N[C@@H](CO)C(=O)N[C@@H](Cc1c[nH]cn1)C(=O)N[C@@H](CC(C)C)C(=O)O; experiment: as above; format: biochemical, hepatitis C virus (HCV); conditions: other: Table 2, stoichiometric concentration, pH 7.5, 25.0 °C
Excerpt: as §3, §4

[7] = test system: NS3 protease + Pep4A; experiment: Automatic assay using a radioactive amide substrate with anionic exchanger capture; format: biochemical, hepatitis C virus (HCV); conditions: 3 hours at 23° C., 40 μM unlabeled peptide, 200 nM protease, 1 μM Pep4A
NS3 protease + Pep4A, sequence (P26663 1039-1206, other chains not shown): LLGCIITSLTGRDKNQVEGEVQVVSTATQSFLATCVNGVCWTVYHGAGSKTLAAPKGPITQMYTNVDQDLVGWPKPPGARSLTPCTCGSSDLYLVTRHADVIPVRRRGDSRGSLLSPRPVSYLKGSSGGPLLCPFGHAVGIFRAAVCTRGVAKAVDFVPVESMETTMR
Procedure: 400,000 cpm of the labelled peptide with a specific activity of 2-10 Ci/mmol. were incubated for 3 hours at 23° C. together with 40 μM (Km /2) of unlabeled peptide in the presence of 200 nM protease and 1 μM of Pep4A in 50 mM Tris pH 7.5, 50% glycerol, 3% CHAPS, 10 mM DTT. […] The fraction coming out of the exchanger is filtered, allowed to sediment or spun. The radioactivity is measured on the clear fraction, the amount of which is exclusively related to the right fragment (C-terminal), given that the amide substrate and the left hand fragment remain bound to the anionic exchanger. The addition of inhibitors causes a decrease in the release rate of the labelled cleaved fragment.

[8] = test system: HCV NS3 protease; conditions: Example 4 amide substrate
HCV NS3 protease, sequence (P26663 1039-1206 limits assumed): as the sequence (P26663 1039-1206, other chains not shown) above
Procedure: as §1, §2

[9] = radioactive depsipeptide substrates, HPLC-based assay

Question: With Ac-DEMEEAASHL [Ala] as the compound, how does the Ki [1] read?
Answer: 173 µM

Question: With `CC[C@H](NC(=O)[C@H](CCC(=O)O)NC(=O)[C@H](CCC(=O)O)NC(=O)[C@H](CC(=O)NCCNc1cccc2c(S(=O)(=O)O)cccc12)NC(=O)[C@H](CCC(=O)O)NC(=O)[C@H](CC(=O)O)NC(C)=O)C(=O)O[C@@H](C)C(=O)N[C@@H](CO)C(=O)N[C@@H](CCCCNC(=O)c1ccc(N=Nc2ccc(N(C)C)cc2)cc1)C(N)=O` [S3, Ac-Asp-Glu-Asp-(EDANS)-Glu-Glu-Abu-.psi.[COO)-Ala-Ser-Lys-(DABCYL)NH2] (Ac-DED(EDANS)EE[Abu][Lac]SK(Dabcyl)-NH2) as the compound, how does the “kcat /Km” value ([2]; fluorogenic depsipeptide, same buffer) read?
Answer: 5342 M⁻¹ s⁻¹

Question: For “Ac-Asp-Glu-Met-Glu-Glu-Abu-.psi.-[COO]-Ala-Ser-His-Leu-Pro-Tyr-Lys(N^ ε -[^3 H]-CH3 CO)-NH2 [SEQ ID NO:44]”, which Km [2, 9] is on record?
Answer: 11 µM

Question: And the kcat [2, 9]?
Answer: 0.15 s⁻¹

Question: `CC(C)C[C@H](NC(=O)[C@@H](NC(=O)N[C@@H](Cc1ccccc1)C(=O)O)[C@@H]1CCN=C(N)N1)C(=O)N[C@H](C=O)Cc1ccccc1` [chymostatin] was tested. Which “inhibition of HCV protease activity” value [3] did it give?
Answer: does not inhibit

Question: With `CC[C@H](NC(=O)[C@H](CCC(=O)O)NC(=O)[C@H](CCC(=O)O)NC(=O)[C@H](CCSC)NC(=O)[C@H](CCC(=O)O)NC(=O)[C@H](CC(=O)O)NC(C)=O)C(=O)N[C@@H](C)C(=O)N[C@@H](CO)C(=O)N[C@@H](Cc1c[nH]cn1)C(=O)N[C@@H](CC(C)C)C(=O)O` [Abu] (Ac-DEMEE[Abu]ASHL-OH) as the compound, how does the Ki [1] read?
Answer: 175 µM

Question: Which Ki [1] does the source give for `C=CC[C@H](NC(=O)[C@H](CCC(=O)O)NC(=O)[C@H](CCC(=O)O)NC(=O)[C@H](CCSC)NC(=O)[C@H](CCC(=O)O)NC(=O)[C@H](CC(=O)O)NC(C)=O)C(=O)N[C@@H](C)C(=O)N[C@@H](CO)C(=O)N[C@@H](Cc1c[nH]cn1)C(=O)N[C@@H](CC(C)C)C(=O)O` [Alg] (Ac-DEMEE[AllylGly]ASHL-OH) here?
Answer: 165 µM

Question: Which results are given for “HCV NS3 protease + Pep4A (NS4A cofactor peptide) (Hepatitis C virus (isolate BK))”?
Answer: Km [4]: 320 µM; Km [5]: 380 µM; kcat [5]: 0.25 s⁻¹; kcat/Km [5]: 650 M⁻¹ s⁻¹; Km [6]: 43 µM; kcat [6]: 0.0233 s⁻¹; kcat/Km [6]: 540 M⁻¹ s⁻¹

Question: Ac-DEMEETASHL [Thr] was tested. Which Ki [1] did it give?
Answer: 215 µM

Question: Which results are given for “Ac-Asp-Glu-Met-Glu-Glu-Cys-Ala-Ser-His-Leu-Pro-Tyr-Lys-ε-(^3 H)Ac (XEMEECASHLPYX; N-acetyl; tritiated epsilon-acetyl) [SEQ ID NO:47]”?
Answer: peptide substrate cleaved [7]: 20%; Km [8]: 79 µM; kcat [8]: 0.00817 s⁻¹; kcat /Km [8]: 103 M⁻¹ s⁻¹

Question: Which Ki [1] does the source give for Ac-DEMEEVASHL [Val] here?
Answer: 173 µM
